{
  "source": "patent US8067424B2",
  "about": "“Selective inhibitors for cyclin-dependent kinases” (Emory University, priority 2007, dated 2011)",
  "format_in_all_cases": "biochemical",
  "key": {"[1]": {"molecular_target": "CSK (Homo sapiens, UniProt P41240)", "assay": "Kinase screen: CSK assay", "protocol": "(§1) Generally, the same procedure was used for all assays. Since the total assay volume was 25.5 microliters, 0.5 microliters of inhibitors at 51× assay concentration were added to the plates before any other addition.\n(§2) The basic procedure was to add 0.5 microliters inhibitor/control in DMSO to plate. Fifteen microliters of enzyme/substrate/buffer mix were added and incubated for 5 min. Ten microliters MgATP at the relevant concentration were added and incubated for 30 min. The assay was stopped by adding 5 microliters of 3% orthophosphoric acid. The assay was transferred to a p81 filter plate and read in a scintillation counter of 30 sec/well. Note that this assay procedure was not followed for MKK1, which instead involved a two-step assay, and PKC alpha, which required the addition of lipid vesicles.\n(500-1000 cpm/pmole) and incubated for 30 min at room temperature Assays were stopped by addition of 5 μl of 0.5 M (3%) orthophosphoric acid and then harvested onto P81 Unifilter plates with a wash buffer of 50 mM orthophosphoric acid."}, "[2]": {"molecular_target": "CAMK1 (Homo sapiens, UniProt Q14012)", "assay": "Kinase screen: CAMK-1 assay", "protocol": "as §1, §2\n(§3) CAMK-1 assay: 5-20 mU of CAMK-1 (diluted in 50 mM Tris (pH 7.5), 0.1 mM EGTA, 1 mg/ml BSA, 0.1%, b-Mercaptoethanol) was assayed against substrate peptide ([…]) (SEQ ID NO: 22) in a final volume of 25.5 μl containing 50 mM Tris (pH 7.5), 0.1 mM EGTA, 0.5 mM CaCl2, 0.3 μM calmodulin, 0.1%, b-Mercaptoethanol, 300 μM substrate peptide, 10 mM magnesium acetate and 0.05 mM [33P-g-ATP] (500-1000 cpm/pmole) and incubated for 30 mins at room temperature. Assays were stopped by addition of 5 μl of 0.5M (3%) orthophosphoric acid. Assays were harvested onto P81 Unifilter plates using a wash buffer of 50 mM orthophosphoric acid."}, "[3]": {"molecular_target": "PRK2 (Homo sapiens, UniProt Q16513)", "assay": "Kinase screen: PRK2 assay", "protocol": "as §1, §2\nas §3, with “PRK2” for “CAMK-1”, “Long S6” for “substrate”, “10)” for “22)”, “EGTA,” for “EGTA, 0.5 mM CaCl2, 0.3 μM calmodulin,”, “30” for “300”, “0.005” for “0.05”"}, "[4]": {"molecular_target": "T1, ERK8 (Homo sapiens, UniProt Q8TD08)", "T1 sequence (Q8TD08 1-544)": "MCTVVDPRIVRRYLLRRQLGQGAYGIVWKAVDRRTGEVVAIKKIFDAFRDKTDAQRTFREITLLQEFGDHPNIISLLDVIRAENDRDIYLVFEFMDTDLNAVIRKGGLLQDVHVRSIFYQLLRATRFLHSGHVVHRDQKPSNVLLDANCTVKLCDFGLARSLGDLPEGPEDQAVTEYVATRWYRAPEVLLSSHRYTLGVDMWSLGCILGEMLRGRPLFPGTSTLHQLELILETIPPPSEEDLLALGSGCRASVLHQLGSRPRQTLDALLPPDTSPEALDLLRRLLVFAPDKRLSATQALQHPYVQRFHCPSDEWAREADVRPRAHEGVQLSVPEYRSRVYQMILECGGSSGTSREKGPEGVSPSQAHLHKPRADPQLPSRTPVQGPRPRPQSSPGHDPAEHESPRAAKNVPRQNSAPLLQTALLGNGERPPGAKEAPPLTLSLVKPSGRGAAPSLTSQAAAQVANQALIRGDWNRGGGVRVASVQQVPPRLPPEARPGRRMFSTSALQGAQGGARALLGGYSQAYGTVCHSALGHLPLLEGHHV", "assay": "Kinase screen: ERK8 assay", "protocol": "as §1, §2\nERK8 assay: 5-20 mU of ERK8 (diluted in 50 mM Tris (pH 7.5), 0.1 mM EGTA, 1 mg/ml BSA, 0.1%, b-Mercaptoethanol) was assayed against MBP in a final volume of 25.5 μl containing 50 mM Tris (pH 7.5), 0.1 mM EGTA, 0.1%, b-Mercaptoethanol, 0.33 mg/ml MBP, 10 mM magnesium acetate and 0.005 mM [33P-g-ATP] (500-1000 cpm/pmole) and incubated for 30 mins at room temperature. Assays were stopped by addition of 5 μl of 0.5M (3%) orthophosphoric acid. Assays were harvested onto P81 Unifilter plates using a wash buffer of 50 mM orthophosphoric acid."}, "[5]": {"molecular_target": "FGF-R1 (Homo sapiens, UniProt P11362)", "assay": "Kinase screen: FGF-R1 assay", "settings": "10 micromolar compound; for remaining activity at 10 µM: read-out: mean activity remaining (as a percentage of the original activity), FGF-R1", "protocol": "as §1, §2\nFGF-R1 assay: FGF-R1 (5-20 mU diluted in 50 mM Tris pH 7.5, 0.1 mM EGTA, 1 mg/ml BSA) was assayed against a substrate peptide (Poly Glut Tyr) in a final volume of 25.5 μl containing 50 mM Tris pH 7.5, 1 mg/ml substrate peptide, 10 mM magnesium acetate and 0.02 mM [33P-g-ATP] (50-1000 cpm/pmole) and incubated for 30 min at room temperature. Assays were stopped by addition of 5 μl of 0.5 M (3%) orthophosphoric acid and then harvested onto P81 Unifilter plates with a wash buffer of 50 mM orthophosphoric acid."}, "[6]": {"settings": "10 micromolar compound, read-out: mean activity remaining (as a percentage of the original activity), CSK"}, "[7]": {"settings": "10 micromolar compound, read-out: mean activity remaining (as a percentage of the original activity), CAMK 1"}, "[8]": {"settings": "10 micromolar compound, read-out: mean activity remaining (as a percentage of the original activity), PRK2"}, "[9]": {"settings": "10 micromolar compound, read-out: mean activity remaining (as a percentage of the original activity), ERK8"}},
  "note": "Like-named read-outs stand apart in the source and are kept apart here.",
  "data": [
    {"smiles": "CC(C)c1cnn2c(NCc3ccccc3)cc(NCCCCCCCN)nc12", "note": "[BS-181]", "values": [
      {"measurement": "remaining activity at 10 µM", "setting": "[1]; CSK, 10 μM, read-out: Mean Remaining Enzyme Activity (%)", "value": 89, "unit": "%"},
      {"measurement": "remaining activity at 10 µM", "setting": "[2]; CAMK1, 10 μM, read-out: Mean Remaining Enzyme Activity (%)", "value": 48, "unit": "%"},
      {"measurement": "remaining activity at 10 µM", "setting": "[3]; PRK2, 10 μM, read-out: Mean Remaining Enzyme Activity (%)", "value": 90, "unit": "%"},
      {"measurement": "remaining activity at 10 µM", "setting": "[4]; ERK8, 10 μM, read-out: Mean Remaining Enzyme Activity (%)", "value": 32, "unit": "%"}
    ]},
    {"smiles": "C=C[C@H](CO)Nc1cc(NCc2ccccc2)n2ncc(C(C)C)c2n1", "note": "[ICEC0065]", "values": [
      {"measurement": "remaining activity at 10 µM", "setting": "[1]; [6]", "value": 77, "unit": "%"},
      {"measurement": "remaining activity at 10 µM", "setting": "[2]; [7]", "value": 89, "unit": "%"},
      {"measurement": "remaining activity at 10 µM", "setting": "[3]; [8]", "value": 105, "unit": "%"},
      {"measurement": "remaining activity at 10 µM", "setting": "[4]; [9]", "value": 28, "unit": "%"},
      {"measurement": "remaining activity at 10 µM", "setting": "[5]", "value": 87, "unit": "%"}
    ]},
    {"smiles": "CC[C@H](CO)Nc1cc(NCc2ccccc2)n2ncc(C(C)C)c2n1", "note": "[ICEC0067]", "values": [
      {"measurement": "remaining activity at 10 µM", "setting": "[1]; [6]", "value": 77, "unit": "%"},
      {"measurement": "remaining activity at 10 µM", "setting": "[2]; [7]", "value": 84, "unit": "%"},
      {"measurement": "remaining activity at 10 µM", "setting": "[3]; [8]", "value": 96, "unit": "%"},
      {"measurement": "remaining activity at 10 µM", "setting": "[4]; [9]", "value": 23, "unit": "%"},
      {"measurement": "remaining activity at 10 µM", "setting": "[5]", "value": 78, "unit": "%"}
    ]},
    {"smiles": "CC(C)c1cnn2c(NCc3ccccc3)cc(N[C@@H](CO)[C@H](O)CO)nc12", "note": "[ICEC0318, (3S)-3-(7-(Benzylamino)-3-isopropylpyrazolo[1,5-a]pyrimidin-5-ylamino)butane-1,2,4-triol]", "values": [
      {"measurement": "remaining activity at 10 µM", "setting": "[1]; [6]", "value": 77, "unit": "%"},
      {"measurement": "remaining activity at 10 µM", "setting": "[2]; [7]", "value": 93, "unit": "%"},
      {"measurement": "remaining activity at 10 µM", "setting": "[3]; [8]", "value": 106, "unit": "%"},
      {"measurement": "remaining activity at 10 µM", "setting": "[4]; [9]", "value": 26, "unit": "%"},
      {"measurement": "remaining activity at 10 µM", "setting": "[5]", "value": 86, "unit": "%"}
    ]},
    {"smiles": "CC(C)c1cnn2c(NCc3ccccc3F)cc(NCCCCCN)nc12", "note": "[ICEC-0232]", "values": [
      {"measurement": "mean activity remaining (as a percentage of the original activity), CSK", "setting": "[1]; 10 micromolar compound", "value": 78, "unit": "%"},
      {"measurement": "mean activity remaining (as a percentage of the original activity), CAMK 1", "setting": "[2]; 10 micromolar compound", "value": 29, "unit": "%"},
      {"measurement": "mean activity remaining (as a percentage of the original activity), PRK2", "setting": "[3]; 10 micromolar compound", "value": 106, "unit": "%"},
      {"measurement": "mean activity remaining (as a percentage of the original activity), ERK8", "setting": "[4]; 10 micromolar compound", "value": 23, "unit": "%"},
      {"measurement": "mean activity remaining (as a percentage of the original activity), FGF-R1", "setting": "[5]", "value": 82, "unit": "%"}
    ]}
  ]
}
